Like-named read-outs stand apart in the source and are kept apart here. Positions of bridges follow the written chain, without caps; N, C: chain ends. Residues, ends and D or L forms follow the SMILES beside them.
Experiments:
[1] = biological target: T1, human holoIR-A over-expressed in HEK293 cells (Homo sapiens, UniProt P06213); assay: Inhibition of hIR phosphorylation by peptides, co-incubated with BHI at its EC50 (ELISA); format: cell-based; details: for hIRA Phosph IC50 Run 1 / hIRA Phosph IC50 Run 2 / hIRA Phosph IC50 Run 3: inhibition of insulin-stimulated phosphorylation; for hIRA Phosph IC50 Run 1: BHI at its EC50, run 1; for hIRA Phosph IC50 Run 2: BHI at its EC50, run 2; for hIRA Phosph IC50 Run 3: BHI at its EC50, run 3; for IC50: read-out: hIRA Phosph IC50 Mean
T1 construct: expressed in transfected cells; host or cells: HEK293, stably transfected
T1 sequence (P06213 28-1370 isoform P06213-2 limits assumed): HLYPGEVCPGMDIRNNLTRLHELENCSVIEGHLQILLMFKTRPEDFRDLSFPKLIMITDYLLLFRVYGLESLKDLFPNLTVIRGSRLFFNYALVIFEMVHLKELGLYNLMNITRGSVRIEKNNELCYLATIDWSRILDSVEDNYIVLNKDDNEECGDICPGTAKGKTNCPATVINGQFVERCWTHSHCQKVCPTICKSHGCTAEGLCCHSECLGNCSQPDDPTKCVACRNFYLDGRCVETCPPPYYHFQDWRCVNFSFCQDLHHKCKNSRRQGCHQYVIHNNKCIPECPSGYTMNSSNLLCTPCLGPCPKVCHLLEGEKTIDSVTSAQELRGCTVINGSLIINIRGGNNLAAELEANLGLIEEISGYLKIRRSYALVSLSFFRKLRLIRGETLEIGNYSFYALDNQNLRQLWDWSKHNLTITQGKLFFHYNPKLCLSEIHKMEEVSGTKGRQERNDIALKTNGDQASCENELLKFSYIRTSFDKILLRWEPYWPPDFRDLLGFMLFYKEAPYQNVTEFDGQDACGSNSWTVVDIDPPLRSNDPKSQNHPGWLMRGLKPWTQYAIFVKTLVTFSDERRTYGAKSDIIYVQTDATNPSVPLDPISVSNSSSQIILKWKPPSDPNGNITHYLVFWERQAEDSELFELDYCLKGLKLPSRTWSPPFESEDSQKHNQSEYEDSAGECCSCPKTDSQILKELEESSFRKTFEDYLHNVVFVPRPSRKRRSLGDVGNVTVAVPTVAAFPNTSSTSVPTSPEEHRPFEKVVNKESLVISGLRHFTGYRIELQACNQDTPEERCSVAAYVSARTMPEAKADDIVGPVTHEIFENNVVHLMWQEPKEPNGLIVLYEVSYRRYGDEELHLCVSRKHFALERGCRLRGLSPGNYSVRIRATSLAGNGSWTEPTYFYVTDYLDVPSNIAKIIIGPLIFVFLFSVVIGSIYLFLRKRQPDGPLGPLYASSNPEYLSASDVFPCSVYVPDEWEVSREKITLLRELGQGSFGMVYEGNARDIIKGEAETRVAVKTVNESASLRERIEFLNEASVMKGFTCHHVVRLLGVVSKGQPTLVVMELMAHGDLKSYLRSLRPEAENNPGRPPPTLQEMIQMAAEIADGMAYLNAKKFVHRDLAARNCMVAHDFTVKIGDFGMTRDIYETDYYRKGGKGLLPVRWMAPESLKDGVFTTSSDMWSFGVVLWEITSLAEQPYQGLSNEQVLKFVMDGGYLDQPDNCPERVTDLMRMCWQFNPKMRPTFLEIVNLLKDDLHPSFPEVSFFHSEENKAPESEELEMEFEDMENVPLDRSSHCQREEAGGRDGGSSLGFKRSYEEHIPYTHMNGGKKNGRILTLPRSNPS
T1 sequence (P06213 763-1382 partner limits assumed): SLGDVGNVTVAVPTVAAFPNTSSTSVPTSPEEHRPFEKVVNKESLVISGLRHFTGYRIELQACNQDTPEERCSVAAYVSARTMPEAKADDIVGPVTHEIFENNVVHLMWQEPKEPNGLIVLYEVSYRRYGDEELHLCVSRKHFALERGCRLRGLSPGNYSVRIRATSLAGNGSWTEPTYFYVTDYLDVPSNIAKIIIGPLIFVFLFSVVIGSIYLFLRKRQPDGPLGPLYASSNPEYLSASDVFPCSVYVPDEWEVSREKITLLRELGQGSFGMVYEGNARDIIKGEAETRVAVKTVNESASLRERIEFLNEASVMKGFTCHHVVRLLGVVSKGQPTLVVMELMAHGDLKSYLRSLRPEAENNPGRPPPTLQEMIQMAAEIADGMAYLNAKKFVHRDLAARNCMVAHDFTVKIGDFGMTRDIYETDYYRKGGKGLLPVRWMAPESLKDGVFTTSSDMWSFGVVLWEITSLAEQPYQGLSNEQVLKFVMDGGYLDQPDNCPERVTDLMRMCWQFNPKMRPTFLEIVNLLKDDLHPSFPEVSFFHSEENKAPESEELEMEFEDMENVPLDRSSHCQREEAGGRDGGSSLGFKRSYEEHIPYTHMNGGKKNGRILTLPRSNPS
Description: Phosphorylation was quantified using an ELISA technique. Ninety-six well, flat-bottom microplates (Greiner Bio-One) were pre-coated with 2 µg mL^−1 anti-C9 monoclonal antibody (Rho 1D4; University of British Columbia)[27] in 20 mM sodium carbonate, pH 9.6, at 4 °C for overnight prior to the assay. On the assay day, plates were washed 3× with 0.1% Tween in 50 mM Tris Buffer Saline, pH 7.5 (TBST), and then blocked for greater than 1 h at room temperature (RT) with 1% BSA (Sigma) in TBST.
Stably transfected HEK293 cells over-expressing human holoIR-A containing a C-terminal C9 epitope tag ([…]), were plated at 6 × 10^4 cells per well serum-starved using 0.1% BSA in DMEM (Gibco) for overnight at standard tissue culture condition. […] After a 15-min incubation in lysis buffer at 4 °C, the lysate was transferred to anti-C9 antibody coated capture plate (Rho 1D4; University of British Columbia)[27]. […] After a 1 h incubation at room temperature, the secondary antibody was removed by washing 3× with TBST. Signal detection occurred with the addition of TMB, an HRP substrate (Pierce). After 5–10 min, the reaction was stopped by adding an equal volume of 2 M H2SO4, and the absorbance readings at 450 nm (A450) were recorded using a Envision plate reader (PerkinElmer). Samples were tested in three independent assay runs on three different days.
Percent specific response (y-axis) was plotted versus the log concentration of compound (x-axis) using Prism Version 9.3.1 (GraphPad Software). Individual measurements are provided as Source Data.

human IR-A (holoIR-A) = biological target: T2, human IR-A (holoIR-A) (Homo sapiens, UniProt P06213); assay: holoIR-A competitive radioligand binding assay (scintillation proximity assay); details: for reduction in ki for hIR-A on substitution: relative to control peptide IM172N22 devoid of N-terminal phenylacetylation
T2 construct: expressed in transfected cells; host or cells: HEK293 (ATCC #CRL-1573), stably transfected; membrane preparation
T2 sequence (P06213 28-1370 isoform P06213-2 limits assumed): as the sequence (P06213 28-1370 isoform P06213-2 limits assumed) above
T2 sequence (P06213 763-1382 partner limits assumed): as the sequence (P06213 763-1382 partner limits assumed) above
Description: Cellular membranes were prepared from human embryonic kidney (HEK293; ATCC #CRL-1573) cells stably transfected with cDNA corresponding to human IR-A (holoIR-A) plus a C-terminal C9 tag ([…]) inserted within a pcDNA3.1 plasmid (Invitrogen), with positive clones selected with 800 μg mL^−1 neomycin and confirmed by Western Blot. Frozen cell pellets were thawed in ice-cold homogenization/resuspension buffer (50 mM Tris-HCl, pH 7.5) containing one cOmplete® protease inhibitor tablet with EDTA (Roche Diagnostics) per 50 mL buffer. Cells were homogenized with an overhead motor-driven Teflon-glass homogenizer using 15–20 strokes, followed by centrifugation at 1100 × g for 10 min at 4 °C. The supernatant was saved on ice, pellets were homogenized as before, and centrifuged at 1100 × g for 10 min at 4 °C. Both supernatants were combined and subsequently centrifuged at 35,000 × g for 60 min at 4 °C. The pellet was resuspended in buffer (4 to 5 mL g^−1 of starting cell paste) containing protease inhibitors and quick frozen in liquid nitrogen prior to storage at −80 °C. Protein concentration was determined using a BCA kit (Thermo Scientific) with bovine serum albumin (BSA) as standard.
The assays were performed with a scintillation proximity assay (SPA) method using polyvinyltoluene (PVT) wheat germ agglutinin-coupled SPA beads (Perkin Elmer). Assay buffer containing 50 mM Tris-HCl (pH 7.5), 150 mM NaCl, 0.1% w/v fatty-acid free BSA was used for all compound testing and reagent preparation. Ten-point concentration response curves with three-fold serial dilutions of test samples or controls were prepared in the assay buffer. […] Plates were sealed and shaken for 1 min on a plate shaker. Following a 10-h incubation and bead settling period at room temperature, radioactivity was determined using a MicroBeta Trilux scintillation counter (Perkin Elmer) and expressed as counts per minute (CPM). […] Samples were tested in three independent assay runs on three different days.
All test sample concentration responses were normalized to the control response and calculated as a percent of the maximal response after correcting for nonspecific binding as shown below: %Specific Inhibition=100%−[(CPM−MIN)/(MAX−MIN)×100%]
Percent specific binding (y-axis) was plotted vs log concentration of compound (x-axis) using Prism Version 9.3.1 (GraphPad Software). Individual measurements are provided as Source Data.

[2] = IM172N22(-) mutant peptide set, mean of 3 runs, read-out: hIRA Binding Ki Mean
[3] = IM172N22(-) mutant peptide set, run 1, read-out: hIRA Binding Ki Run 1
[4] = IM172N22(-) mutant peptide set, run 2, read-out: hIRA Binding Ki Run 2
[5] = IM172N22(-) mutant peptide set, run 3, read-out: hIRA Binding Ki Run 3

| SMILES | hIRA Phosph IC50 Run 1 [1] | hIRA Phosph IC50 Run 2 [1] | hIRA Phosph IC50 Run 3 [1] | IC50 [1] | Ki (human IR-A (holoIR-A); [2]) | Ki (human IR-A (holoIR-A); [3]) | Ki (human IR-A (holoIR-A); [4]) | Ki (human IR-A (holoIR-A); [5]) | binding of the mutant peptide to hIR-A (in words) (human IR-A (holoIR-A); alanine substitution in IM172N22(-)) | Ki (human IR-A (holoIR-A); read-out: hIRA Binding Ki Mean) | reduction in ki for hIR-A on substitution (human IR-A (holoIR-A)) |
| --- | --- | --- | --- | --- | --- | --- | --- | --- | --- | --- | --- |
| CC[C@H](C)[C@H](NC(=O)[C@H](CCC(N)=O)NC(=O)[C@H](C)NC(=O)[C@H](Cc1c[nH]c2ccccc12)NC(=O)[C@H](CCC(=O)O)NC(=O)[C@H](CCC(=O)O)NC(=O)[C@H](CCC(=O)O)NC(=O)[C@H](CC(C)C)NC(=O)[C@H](CO)NC(C)=O)C(=O)N[C@@H](CCC(=O)O)C(=O)N[C@H]1CSSC[C@@H](C(=O)N2CCC[C@H]2C(=O)N2CCC[C@H]2C(=O)N[C@@H](CO)C(=O)N[C@@H](CCC(=O)O)C(=O)N[C@@H](CO)C(N)=O)NC(=O)[C@H](CCCNC(=N)N)NC(=O)CNC(=O)[C@H](C)NC(=O)[C@H](C(C)C)NC(=O)[C@H](CCC(=O)O)NC1=O [Peptide Y14A] (Ac-SLEEEWAQIECEVAGRCPPSES-NH2; disulfide 11-17) | >10000 nM | >10000 nM | >10000 nM | > 10000 nM | > 4240 nM | > 1210 nM | > 4160 nM | > 4240 nM | no detectable binding | – | – |
| CC[C@H](C)[C@H](NC(=O)[C@H](CCC(N)=O)NC(=O)[C@H](C)NC(=O)[C@H](Cc1c[nH]c2ccccc12)NC(=O)[C@H](CCC(=O)O)NC(=O)[C@H](CCC(=O)O)NC(=O)[C@H](CCC(=O)O)NC(=O)[C@H](CC(C)C)NC(=O)[C@H](CO)NC(C)=O)C(=O)N[C@@H](CCC(=O)O)C(=O)N[C@H]1CSSC[C@@H](C(=O)N2CCC[C@H]2C(=O)N2CCC[C@H]2C(=O)N[C@@H](CO)C(=O)N[C@@H](CCC(=O)O)C(=O)N[C@@H](CO)C(N)=O)NC(=O)[C@H](CCCNC(=N)N)NC(=O)CNC(=O)[C@H](Cc2ccc(O)cc2)NC(=O)[C@H](C(C)C)NC(=O)[C@H](CCC(=O)O)NC1=O [IM172N22-] (Ac-SLEEEWAQIECEVYGRCPPSES-NH2; disulfide 11-17) | 85 nM | 76 nM | 80 nM | 80.3 nM | – | 7.07 nM | 8.06 nM | 9.36 nM | – | 8.16 nM | – |
| CC[C@H](C)[C@H](NC(=O)[C@H](CCC(N)=O)NC(=O)[C@H](C)NC(=O)[C@H](Cc1c[nH]c2ccccc12)NC(=O)[C@H](CCC(=O)O)NC(=O)[C@H](CCCNC(=N)N)NC(=O)[C@H](CCC(=O)O)NC(=O)[C@H](CC(C)C)NC(=O)[C@H](CO)NC(C)=O)C(=O)N[C@@H](CCC(=O)O)C(=O)N[C@H]1CSSC[C@@H](C(=O)N2CCC[C@H]2C(=O)N2CCC[C@H]2C(=O)N[C@@H](CO)C(=O)N[C@@H](CCC(=O)O)C(=O)N[C@@H](CO)C(N)=O)NC(=O)[C@H](CCCNC(=N)N)NC(=O)CNC(=O)[C@H](Cc2ccc(O)cc2)NC(=O)[C@H](C(C)C)NC(=O)[C@H](CCC(=O)O)NC1=O [Peptide E4R] (Ac-SLEREWAQIECEVYGRCPPSES-NH2; disulfide 11-17) | 367 nM | 259 nM | 348 nM | 325 nM | 38 nM | 42.4 nM | 35.7 nM | 35.9 nM | – | – | – |
| CC[C@H](C)[C@H](NC(=O)[C@H](CCC(N)=O)NC(=O)[C@H](C)NC(=O)[C@H](Cc1c[nH]c2ccccc12)NC(=O)[C@H](CCC(=O)O)NC(=O)[C@H](CCC(=O)O)NC(=O)[C@H](CCC(=O)O)NC(=O)[C@H](CC(C)C)NC(=O)[C@H](CO)NC(C)=O)C(=O)N[C@@H](CCC(=O)O)C(=O)N[C@H]1CSSC[C@@H](C(=O)N[C@@H](C)C(=O)N2CCC[C@H]2C(=O)N[C@@H](CO)C(=O)N[C@@H](CCC(=O)O)C(=O)N[C@@H](CO)C(N)=O)NC(=O)[C@H](CCCNC(=N)N)NC(=O)CNC(=O)[C@H](Cc2ccc(O)cc2)NC(=O)[C@H](C(C)C)NC(=O)[C@H](CCC(=O)O)NC1=O [Peptide P18A] (Ac-SLEEEWAQIECEVYGRCAPSES-NH2; disulfide 11-17) | 158 nM | 143 nM | 123 nM | 141 nM | 23.1 nM | 20.6 nM | 21.2 nM | 27.3 nM | – | – | lower than 5 fold |
| CC[C@H](C)[C@H](NC(=O)[C@H](CCC(N)=O)NC(=O)[C@H](C)NC(=O)[C@H](Cc1c[nH]c2ccccc12)NC(=O)[C@H](CCC(=O)O)NC(=O)[C@H](CCC(=O)O)NC(=O)[C@H](C)NC(=O)[C@H](CC(C)C)NC(=O)[C@H](CO)NC(C)=O)C(=O)N[C@@H](CCC(=O)O)C(=O)N[C@H]1CSSC[C@@H](C(=O)N2CCC[C@H]2C(=O)N2CCC[C@H]2C(=O)N[C@@H](CO)C(=O)N[C@@H](CCC(=O)O)C(=O)N[C@@H](CO)C(N)=O)NC(=O)[C@H](CCCNC(=N)N)NC(=O)CNC(=O)[C@H](Cc2ccc(O)cc2)NC(=O)[C@H](C(C)C)NC(=O)[C@H](CCC(=O)O)NC1=O [Peptide E3A] (Ac-SLAEEWAQIECEVYGRCPPSES-NH2; disulfide 11-17) | 1212 nM | 1189 nM | 1302 nM | 1230 nM | 342 nM | 335 nM | 353 nM | 337 nM | – | – | – |
| CC[C@H](C)[C@H](NC(=O)[C@H](CCC(N)=O)NC(=O)[C@H](C)NC(=O)[C@H](Cc1c[nH]c2ccccc12)NC(=O)[C@H](CCC(=O)O)NC(=O)[C@H](CCC(=O)O)NC(=O)[C@H](CCC(=O)O)NC(=O)[C@H](CC(C)C)NC(=O)[C@H](CO)NC(C)=O)C(=O)N[C@@H](C)C(=O)N[C@H]1CSSC[C@@H](C(=O)N2CCC[C@H]2C(=O)N2CCC[C@H]2C(=O)N[C@@H](CO)C(=O)N[C@@H](CCC(=O)O)C(=O)N[C@@H](CO)C(N)=O)NC(=O)[C@H](CCCNC(=N)N)NC(=O)CNC(=O)[C@H](Cc2ccc(O)cc2)NC(=O)[C@H](C(C)C)NC(=O)[C@H](CCC(=O)O)NC1=O [Peptide E10A] (Ac-SLEEEWAQIACEVYGRCPPSES-NH2; disulfide 11-17) | 272 nM | 217 nM | 236 nM | 242 nM | 19 nM | 19.4 nM | 16.4 nM | 21.2 nM | – | – | lower than 5 fold |
